Data from patent publication US10208056B2, “Condensed tricyclic compounds as protein kinase inhibitors” (FUNDACIÓN DEL SECTOR PÚBLICO ESTATAL CENTRO NACIONAL DE …, priority 2015, dated 2019).

Legend:
CDK8/Cyclin C = CDK8/Cyclin C (Homo sapiens (Human), UniProt P49336); experiment: CDK8/Cyclin C binding assay (LanthaScreen Eu-Kinase Binding Assay); conditions: for IC50: binding assay
Protocol: The enzyme has been purchase from Invitrogen (PV4402) as a dimer of full-length His-tagged recombinant human proteins.
(§1) Assays were performed in 384-well plates. The final read out was generated using an EnVision plate reader (Perkin-Elmer).

Haspin kinase = Haspin kinase (Homo sapiens (Human), UniProt Q8TF76); experiment: Haspin kinase assay (ADP-Glo); format: biochemical; conditions: ATP 150 μM
Description: The kinase assay relies on ADP-Glo^KM biochemical kinase assay (Promega). This is a luminescent kinase assay that measures ADP formed from a kinase reaction. Then ADP is converted into ATP, which is transformed into a light signal by Ultra-Glo™ Luciferase. The luminescent signal positively correlates with kinase activity. The assay measures the intrinsic ATPase activity (in the absence of peptidic substrate as phosphate acceptor).
The enzyme was purchase from Invitrogen (PV5708) as the kinase domain of GST tagged recombinant human proteins.
Assay conditions were as indicated by the kit manufacturers with the following adaptations: • Assay buffer: 15 mM HEPES pH 7.4, 20 mM NaCl, 1 mM EGTA, 0.02% Tween 20, 10 mM MgCl2, 0.1 mg/ml BGG • Assay volume: 20 μl • Incubation time and temperature: 60 min at 30° C. • Haspin concentration: 20 nM • ATP concentration: 150 μM • Tested compound: Serial 1:3 dilutions • Final DMSO concentration in the assay: 1%
Assays were performed in 384-well plates. The final read out was generated using an EnVision plate reader (Perkin-Elmer). Luminescent relative units are normalized against the control activity included for each compound (i.e., 100% Haspin activity, without compound) and the percentage of inhibition is calculated.

CDK19/Cyclin C = CDK19/Cyclin C (Homo sapiens (Human), UniProt Q9BWU1); experiment: CDK19/Cyclin C binding assay (LanthaScreen Eu-Kinase Binding Assay); conditions: read-out: CDK19-CYCC IC50
Protocol: The binding assay relies on the LanthaScreen™ Eu-Kinase Binding Assay (Invitrogen).
Assay conditions were as indicated by the kit manufacturers with the following adaptations: • Assay buffer: 50 mM HEPES, pH 7.5, 1 mM EGTA, 0.01% Brij-35, 10 mM MgCl2 • Assay volume: 20 μl • Incubation time and temperature: 60 min at 25° C. • Cdk19-Cyclin C concentration: 2 nM • Tracer concentration: 20 nM • (Eu)-labelled anti-GST antibody concentration: 2 nM • Tested compound: Serial 1:3 dilutions • Final DMSO concentration in the assay: 1%
as §1

Haspin kinase, sequence (Q8TF76 484-798): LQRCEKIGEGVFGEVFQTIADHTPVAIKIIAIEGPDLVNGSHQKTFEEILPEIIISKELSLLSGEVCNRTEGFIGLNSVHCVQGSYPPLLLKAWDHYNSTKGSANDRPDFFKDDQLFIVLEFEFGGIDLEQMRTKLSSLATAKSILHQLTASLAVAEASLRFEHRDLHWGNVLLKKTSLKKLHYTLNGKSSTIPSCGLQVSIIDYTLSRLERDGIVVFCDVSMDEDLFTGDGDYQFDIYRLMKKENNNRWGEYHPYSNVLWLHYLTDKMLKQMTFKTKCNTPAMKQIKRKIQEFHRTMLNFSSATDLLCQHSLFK
CDK19/Cyclin C, sequence (Q9BWU1 whole entry): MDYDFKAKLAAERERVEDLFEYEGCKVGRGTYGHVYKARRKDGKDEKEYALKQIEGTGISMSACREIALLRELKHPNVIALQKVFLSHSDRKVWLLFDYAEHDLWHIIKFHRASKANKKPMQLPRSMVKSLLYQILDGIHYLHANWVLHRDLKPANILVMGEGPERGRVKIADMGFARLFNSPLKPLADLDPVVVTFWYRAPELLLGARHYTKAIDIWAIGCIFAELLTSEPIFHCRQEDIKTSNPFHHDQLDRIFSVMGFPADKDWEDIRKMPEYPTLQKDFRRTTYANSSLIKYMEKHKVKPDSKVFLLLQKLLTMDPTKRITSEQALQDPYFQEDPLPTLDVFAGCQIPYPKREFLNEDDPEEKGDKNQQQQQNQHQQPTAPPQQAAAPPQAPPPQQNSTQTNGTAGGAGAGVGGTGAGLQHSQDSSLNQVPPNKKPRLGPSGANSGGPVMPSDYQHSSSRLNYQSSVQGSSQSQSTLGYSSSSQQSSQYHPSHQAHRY
CDK19/Cyclin C, sequence (P24863 whole entry partner): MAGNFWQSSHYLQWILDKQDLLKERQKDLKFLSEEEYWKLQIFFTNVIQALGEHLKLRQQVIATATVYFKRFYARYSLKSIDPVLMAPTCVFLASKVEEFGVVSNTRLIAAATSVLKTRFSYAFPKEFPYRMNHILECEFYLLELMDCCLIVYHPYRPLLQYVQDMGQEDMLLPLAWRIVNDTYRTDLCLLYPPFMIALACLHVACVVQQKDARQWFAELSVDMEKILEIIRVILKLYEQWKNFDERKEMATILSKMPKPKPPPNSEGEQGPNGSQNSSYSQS
CDK8/Cyclin C, sequence (P49336 whole entry): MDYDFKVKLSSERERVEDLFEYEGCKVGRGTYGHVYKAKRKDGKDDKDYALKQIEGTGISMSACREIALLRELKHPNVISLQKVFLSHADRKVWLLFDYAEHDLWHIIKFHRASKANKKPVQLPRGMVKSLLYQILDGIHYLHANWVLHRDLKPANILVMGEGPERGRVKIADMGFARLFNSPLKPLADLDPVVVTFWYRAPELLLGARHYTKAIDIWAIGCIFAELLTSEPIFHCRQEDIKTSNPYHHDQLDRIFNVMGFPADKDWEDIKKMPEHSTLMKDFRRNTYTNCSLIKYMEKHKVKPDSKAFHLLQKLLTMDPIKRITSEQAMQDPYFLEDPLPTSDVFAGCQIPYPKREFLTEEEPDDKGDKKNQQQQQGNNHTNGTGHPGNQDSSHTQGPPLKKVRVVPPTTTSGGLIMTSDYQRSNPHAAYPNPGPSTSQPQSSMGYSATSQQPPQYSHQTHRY
CDK8/Cyclin C, sequence (P24863 whole entry partner): as the sequence (P24863 whole entry partner) above

Compound | IC50 (CDK8/Cyclin C) [nM] | IC50 (Haspin kinase) [nM] | IC50 (CDK19/Cyclin C) [nM] | CDK8 selectivity (CDK8/Cyclin C)
NC(=O)c1cc2c([nH]1)-c1ccncc1OC21CCN(C2CC2)CC1 [Example 16] | 5700 | 4280 | – | –
CCn1c(C(N)=O)c(C2CC2)c2c1-c1ccncc1OC2(C)C [Example 94] | 2.65 | 17.5 | – | –
CCn1c(C(N)=O)c(-c2ccccc2C(F)(F)F)c2c1-c1ccncc1OC2(C)C [Example 75] | 14.4 | 233 | 16.7 | –
COc1ccc(-c2c(C(N)=O)[nH]c3c2C(C)(C)Oc2cnccc2-3)cc1 [Example 51] | 31.9 | 321 | 171 | –
NC(=O)c1cc2c([nH]1)-c1ccncc1OC21CCCCC1 [Example 13] | 4.18 | 53.6 | 8.22 | –
CC1(C)Oc2cnccc2-c2[nH]c(C(N)=O)c(-c3ccc4[nH]ncc4c3)c21 [Example 65] | 10000 | 933 | 10000 | –
O=C(O)c1cc2c([nH]1)-c1ccncc1OC21CCN(CC(F)(F)F)CC1 [Example 19] | 652 | 2950 | – | –
Cl.NC(=O)c1cc2c([nH]1)-c1ccncc1OC21CCNCC1 [Example 12] | 412 | 53.3 | 550 | –
CC1(C)Oc2cnccc2-c2[nH]c(C(N)=O)c(-c3ccccc3O)c21 [Example 64] | 112 | 656 | – | –
O=C(O)c1cc2c([nH]1)-c1ccncc1OC21CCCCC1 [Example 14] | 23.9 | 1000 | 3.01 | –
NC(=O)c1cc2c(n1CCF)-c1ccncc1OC21CCOCC1 [Example 92] | < 1.41 | 25.6 | – | –
NC(=O)c1cc2c([nH]1)-c1ccncc1OC21CCOCC1 [Example 20] | 54.7 | 206 | 211 | –
CC1(C)Oc2cnccc2-c2[nH]c(C(N)=O)c(-c3ccccc3C(F)(F)F)c21 [Example 74] | 211 | 743 | – | –
CC1Oc2cnccc2-c2[nH]c(C(N)=O)cc21 (stereo not drawn) [Example 58] | 14.4 | 247 | 25.5 | –
C=Cc1c(C(N)=O)[nH]c2c1C(C)(C)Oc1cnccc1-2 [Example 33] | 12.3 | 90.6 | 29.5 | –
CC1(C)Oc2cnccc2-c2[nH]c(C(N)=O)c(-c3cccc(S(N)(=O)=O)c3)c21 [Example 40] | 269 | 254 | – | –
NC(=O)c1cc2c([nH]1)-c1ccncc1OC21CCN(CCCC(F)(F)F)CC1 [Example 48] | 886 | 470 | – | –
CCN1CCC2(CC1)Oc1cnccc1-c1[nH]c(C(N)=O)cc12 [Example 42] | 197 | 153 | – | –
CC1(C)Oc2cnccc2-c2[nH]c(C(=O)O)c(-c3ccc(S(N)(=O)=O)cc3)c21 [Example 30] | 8.94 | 2740 | 20.7 | high CDK8 selectivity
CC1(C)Oc2cnccc2-c2c1cc(C(=O)O)n2Cc1ccccc1 [Example 24] | 10000 | 20400 | – | –
CC1(C)Oc2c(ccnc2Cl)-c2[nH]c(C(N)=O)cc21 [Example 36] | 559 | 292 | – | –

Compound | IC50 (CDK8/Cyclin C) [nM] | IC50 (Haspin kinase) [nM] | IC50 (CDK19/Cyclin C) [nM] | CDK8 selectivity (CDK8/Cyclin C)
CC1(C)Oc2cnccc2-c2[nH]c(C(N)=O)c(-c3ccc(S(N)(=O)=O)cc3)c21 [Example 32] | 26.2 | 235 | 81.3 | –
CCn1c(C(N)=O)c(Cl)c2c1-c1ccncc1OC21CCOCC1 [Example 104] | 2.41 | 8.91 | – | –
CC1(C)Oc2c(ccnc2Cl)-c2[nH]c(C(=O)O)cc21 [Example 37] | 6290 | 1650 | – | –
NC(=O)c1cc2c([nH]1)-c1ccncc1OC21CCN(CCC(F)(F)F)CC1 [Example 47] | 120 | 466 | – | –
CCn1c(C(N)=O)cc2c1-c1ccncc1O[C@@H]2C1CCOCC1 (single isomer, unassigned) [Example 96] | < 1.41 | 355 | – | –
COCCn1c(C(=O)O)cc2c1-c1ccncc1OC2(C)C [Example 27] | 10000 | 49900 | – | –
CC1(C)Oc2cnccc2-c2[nH]c(C(=O)O)c(C3=CCOCC3)c21 [Example 56] | 78.5 | 683 | 86.6 | –
CC1(C)Oc2cnccc2-c2[nH]c(C(N)=O)c(C3=CCOCC3)c21 [Example 55] | 39.3 | 146 | 70.5 | –
CC1(C)Oc2cncc(Cl)c2-c2[nH]c(C(=O)O)cc21 [Example 35] | 13.3 | 151 | 31.4 | –
CC1(C)Oc2cnccc2-c2c1cc(C(N)=O)n2CC(F)(F)F [Example 53] | 21.6 | 186 | 19.4 | –
COC(=O)c1[nH]c2c(c1-c1ccccc1)C(C)(C)Oc1cnccc1-2 [LXIX] | 2000 | – | – | –
O=C(O)c1cc2c([nH]1)-c1ccncc1OC21CCN(C2CC2)CC1 [Example 17] | 1530 | 5960 | – | –
CCn1c(C(N)=O)cc2c1-c1ccncc1O[C@H]2C1CCOCC1 (single isomer, unassigned) [Example 95] | < 1.41 | – | – | –
COc1cccc(-c2c(C(N)=O)[nH]c3c2C(C)(C)Oc2cnccc2-3)c1 [Example 85] | 127 | 260 | – | –
CC(=O)N1CCC2(CC1)Oc1cnccc1-c1[nH]c(C(N)=O)cc12 [Example 77] | 7.48 | 188 | – | –
CCn1c(C(N)=O)c(Cl)c2c1-c1ccncc1OC21CCCCC1 [Example 105] | < 1.41 | 8.82 | – | –
CCn1c(C(N)=O)cc2c1-c1ccncc1OC21CCC1 [Example 66] | 0.191 | – | 1.41 | –
COC(=O)c1[nH]c2c(c1-c1ccc(S(N)(=O)=O)cc1)C(C)(C)Oc1cnccc1-2 [LXX] | 2850 | – | – | –
COc1ccccc1-c1c2c(n(CCF)c1C(=O)NCCF)-c1ccncc1OC2(C)C [Example 78] | 484 | 33300 | – | –
CC1(C)Oc2cnccc2-c2[nH]c(C(N)=O)c(-c3ccc(F)cc3)c21 [Example 50] | 581 | 782 | – | –
CC1(C)Oc2cncc(-c3ccccc3)c2-c2[nH]c(C(N)=O)cc21 [Example 39] | 206 | 2330 | – | –

Next, values leading:

IC50 (CDK8/Cyclin C) [nM] | IC50 (Haspin kinase) [nM] | IC50 (CDK19/Cyclin C) [nM] | CDK8 selectivity (CDK8/Cyclin C) | Compound
979 | 2350 | – | – | CCN(CC)C(=O)c1cc2c([nH]1)-c1ccncc1OC2(C)C [Example 9]
5870 | 22300 | – | – | CC(C)n1c(C(N)=O)cc2c1-c1ccncc1OC2(C)C [Example 25]
315 | 5700 | – | – | CC1(C2(C)Oc3cnccc3-c3[nH]c(C(N)=O)cc32)COC1 (stereo not drawn) [Example 49]
3520 | 1730 | – | – | CC1(C)Oc2cnccc2-c2[nH]c(C(=O)NC3CCNCC3)cc21 [Example 10]
61.1 | 648 | 233 | – | Cn1c(C(=O)O)cc2c1-c1ccncc1OC2(C)C [Example 23]
92.2 | 180 | 322 | – | CNC(=O)c1cc2c([nH]1)-c1ccncc1OC2(C)C [Example 3]
312 | 6730 | – | – | CCn1c(C(=O)O)cc2c1-c1ccncc1OC2(C)C [Example 44]
677 | – | – | – | COC(=O)c1cc2c([nH]1)-c1ccncc1OC2(C)C [VIII]
1870 | 18400 | – | – | CC(C)(C)OC(=O)N1CCC(NC(=O)c2cc3c([nH]2)-c2ccncc2OC3(C)C)CC1 [Example 5]
461 | 6830 | – | – | CC1(C)Oc2cnc(Cl)cc2-c2[nH]c(C(N)=O)cc21 [Example 38]
2410 | 1780 | – | – | CC(C)NC(=O)c1cc2c([nH]1)-c1ccncc1OC2(C)C [Example 6]
1490 | 1020 | – | – | COCCNC(=O)c1cc2c([nH]1)-c1ccncc1OC2(C)C [Example 7]
5280 | 7550 | – | – | CC1(C)Oc2cnccc2-c2[nH]c(C(=O)Nc3ccccc3)cc21 [Example 4]
340 | 305 | – | – | CC1(C)Oc2cnccc2-c2[nH]c(C(=O)NCc3ccccc3)cc21 [Example 8]
162 | 418 | – | – | CC1(C)Oc2cnccc2-c2[nH]c(C(=O)NCCc3ccccc3)cc21 [Example 11]
146 | 306 | – | – | CC1(C)Oc2cnccc2-c2[nH]c(C(=O)O)cc21 [Example 2]
780 | – | – | – | COC(=O)c1[nH]c2c(c1Br)C(C)(C)Oc1cnccc1-2 [LXVIII]
5940 | 49000 | – | – | CC(C)n1c(C(=O)O)cc2c1-c1ccncc1OC2(C)C [Example 26]
671 | 868 | – | – | CC1(C)Oc2cnccc2-c2[nH]c(C(=O)N3CCOCC3)cc21 [Example 21]
